{
  "source": "patent EP1200406B1",
  "about": "“CYCLIC AMIDES AND IMIDES HAVING SELECTIVE ANTAGONIST ACTIVITY AT ALPHA-1D ADRENERGIC RECEPTOR” (RECORDATI INDUSTRIA CHIMICA E FARMACEUTICA S.p.a., priority 1999, dated 2001)",
  "test_system": "conscious rats with partial bladder-outlet obstruction",
  "test": "Cystometry in conscious rats with infravesical outflow obstruction by partial urethral ligature",
  "type": "in vivo, Female Sprague Dawley rats",
  "details": "0.3 mg/kg i.v.",
  "protocol": "Effects on cystometric parameters in conscious rats with […] outflow obstruction by partial urethral ligature. Female Sprague Dawley rats of 225-275 g body weight [Crl: CD(SD)BR, from Charles River Italia, Calco, Como] were used. The animals were housed with free access to food and water and maintained on a forced 12 hour alternating light dark cycle at 22-24°C for at least one week, except during experiment performance. In order to obtain a partial obstruction of the urethra, the method previously reported by Malmgren (Malmgren A. et al., J. UroL 137, 1291-1294, 1987; Neurourol. […] Pharmacol. […] The rats were anaesthetised with intraperitoneal (i.p.) administration of 3 ml/kg of Equithensin solution (pentobarbital 1.215 g, chloral hydrate 5.312 g, magnesium sulphate 2.657 g, ethanol 12.5 ml, propylene glycol 49.5 ml, distilled water to 125 ml of final volume) and then the bladder and proximal urethra were exposed via an abdominal midline incision. A silk ligature was placed around the urethra and tied in the presence of an intraluminally placed indwelling polyethylene cannula with an outside diameter of 1.22 mm. After removing the polyethylene cannula, the abdominal wall was sutured and then antibiotic medication (penicillin G 200000 I.U./kg and streptomycin 260 mg/kg i.p.) was performed. After three weeks of obstruction the animals were prepared for cystometry. The animals, anesthetized as reported above, were placed in a supine position and a midline incision was made in the shaved and cleaned abdominal wall. The urinary bladder was exposed and gently freed from adhering tissues, emptied and then cannulated, via an incision at the dome, with a polyethylene cannula (0.58 mm inside diameter and 0.96 mm outside diameter), which was permanently sutured with silk thread. For intravenous bolus injection a similar polyethylene tubing filled with physiological saline containing sodium heparin (40 I.U./ml) was inserted into the jugular vein. The cannulae were exteriorised through a subcutaneous tunnel in the retroscapular area, where they were connected with a plastic adapter, in order to avoid the risk of removal by the animal. Two days after bladder catheter implantation, the animals, fasted overnight, were placed in Bollman's cages or in particular plastic cages which allowed some lateral and back and forth movement of the rats, allowing measurements of micturition volume (MV). After a stabilisation period of 20 minutes, the free tip of the bladder cannula was connected to a pressure transducer and to a peristaltic pump for a continuous infusion of warm saline solution (37° C), into the urinary bladder. In order to shorten the time-period of saline infusion necessary to provoke micturition in the obstructed rats, a filling rate of the bladder of 10 ml/h was chosen. During infusion of saline into the bladder, the intravesical pressure signal and urine volume micturated were continuously recorded on chart polygraph. […] BVC (in ml) was defined as the volume of saline infused into the bladder from the start of the infusion to micturition. […] MV (in ml), defined as the volume of expelled urine during each single micturition, was recorded by means of a force displacement transducer connected to the polygraph and measuring the urine collected in a small reservoir placed under the cage. Basal values of the parameters above reported were evaluated as the mean of the values obtained in two complete and reproducible cystometrograms before treatment (time 0). Then the animals were treated intravenously by bolus injection with the test compound under continuous infusion of saline into the bladder. The parameter changes after compound injection (first cystometrogram and those recorded approximately after 30 and 60 minutes) were compared with the values recorded before injection (basal values).",
  "data": [
    {"smiles": "O=C1CC2(CCCC2)CC(=O)N1CCN1CCN(c2cc(Cl)ccc2Cl)CC1", "note": "[Example 1, 8-{2-[4-(2,5-Dichlorophenyl)-1-piperazinyl]-ethyl}-8-azaspiro[4.5]decane-7,9-dione]", "values": [
      {"measurement": "BVC mean values, change", "result": "20-30%"},
      {"measurement": "changes in MP values", "result": "no significant changes"},
      {"measurement": "BVC (bladder volume capacity), % changes vs basal values", "setting": "30 minutes", "result": 22, "unit": "%"},
      {"measurement": "MP (micturition pressure), % changes vs basal values", "setting": "30 minutes", "result": -7, "unit": "%"},
      {"measurement": "MV (micturition volume), % changes vs basal values", "setting": "30 minutes", "result": 42, "unit": "%"},
      {"measurement": "NMC – A (non-micturition contractions, amplitude), % changes vs basal values", "setting": "30 minutes", "result": -33, "unit": "%"},
      {"measurement": "NMC – F (non-micturition contractions, frequency), % changes vs basal values", "setting": "30 minutes", "result": -38, "unit": "%"},
      {"measurement": "BVC (bladder volume capacity), % changes vs basal values", "setting": "60 minutes", "result": 30, "unit": "%"},
      {"measurement": "MP (micturition pressure), % changes vs basal values", "setting": "60 minutes", "result": -6, "unit": "%"},
      {"measurement": "MV (micturition volume), % changes vs basal values", "setting": "60 minutes", "result": 28, "unit": "%"},
      {"measurement": "NMC – A (non-micturition contractions, amplitude), % changes vs basal values", "setting": "60 minutes", "result": -38, "unit": "%"},
      {"measurement": "NMC – F (non-micturition contractions, frequency), % changes vs basal values", "setting": "60 minutes", "result": -23, "unit": "%"},
      {"measurement": "BVC (bladder volume capacity), % changes vs basal values", "setting": "First cystometrogram", "result": 26, "unit": "%"},
      {"measurement": "MP (micturition pressure), % changes vs basal values", "setting": "First cystometrogram", "result": -2, "unit": "%"},
      {"measurement": "MV (micturition volume), % changes vs basal values", "setting": "First cystometrogram", "result": 35, "unit": "%"},
      {"measurement": "NMC – A (non-micturition contractions, amplitude), % changes vs basal values", "setting": "First cystometrogram", "result": -35, "unit": "%"},
      {"measurement": "NMC – F (non-micturition contractions, frequency), % changes vs basal values", "setting": "First cystometrogram", "result": -24, "unit": "%"},
      {"measurement": "frequency and amplitude of the non-voiding contractions", "setting": "immediately after the injections", "result": "rapid decrease"}
    ]}
  ]
}
